Positions of bridges follow the written chain, without caps; N, C: chain ends. Non-standard residues stand in square brackets, D forms with d. Residues, ends and D or L forms follow the SMILES beside them. *: point of attachment. NH(CH2CH2O)8Me = COCCOCCOCCOCCOCCOCCOCCOCCN*; NMePhe(3-Cl) = CN[C@@H](Cc1cccc(Cl)c1)C(=O)O; 3Pal(6-NH2) = Nc1ccc(C[C@H](N)C(=O)O)cn1; NMeY = CN[C@@H](Cc1ccc(O)cc1)C(=O)O; 4Pal = N[C@@H](Cc1ccncc1)C(=O)O; PEG4 = NCCOCCOCCOCCOCCC(=O)O; Carboxymethyl = O=C(O)C*

The target in this assay is T1, human transferrin receptor (hTfR) (Homo sapiens, UniProt P02786).
T1 construct: made in house
T1 sequence (P02786 89-760 limits assumed): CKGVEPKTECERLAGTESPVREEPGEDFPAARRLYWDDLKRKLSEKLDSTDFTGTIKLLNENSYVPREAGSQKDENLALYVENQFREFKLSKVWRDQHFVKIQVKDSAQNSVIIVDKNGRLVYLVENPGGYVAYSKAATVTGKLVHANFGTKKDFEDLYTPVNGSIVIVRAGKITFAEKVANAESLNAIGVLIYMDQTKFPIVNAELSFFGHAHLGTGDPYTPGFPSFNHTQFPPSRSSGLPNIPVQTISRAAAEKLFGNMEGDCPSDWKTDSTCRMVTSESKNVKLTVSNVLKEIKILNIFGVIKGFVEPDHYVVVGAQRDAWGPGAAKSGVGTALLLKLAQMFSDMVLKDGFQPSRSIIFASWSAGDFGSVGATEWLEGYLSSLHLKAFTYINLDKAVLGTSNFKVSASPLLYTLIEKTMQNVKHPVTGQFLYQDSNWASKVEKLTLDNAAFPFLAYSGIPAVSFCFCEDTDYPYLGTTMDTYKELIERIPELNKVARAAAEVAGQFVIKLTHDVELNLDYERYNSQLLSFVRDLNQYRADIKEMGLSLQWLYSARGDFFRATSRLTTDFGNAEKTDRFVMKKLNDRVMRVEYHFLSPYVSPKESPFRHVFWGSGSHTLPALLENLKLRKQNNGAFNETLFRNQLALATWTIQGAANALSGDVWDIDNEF
The assay is described as follows: Evaluation of molecular interaction between transferrin receptor (hTfR) and peptide using surface plasmon resonance (SPR). It counts as binding. The note with it: surface plasmon resonance, binding to hTfR; KD class symbol; read-out: SPR (KD value). Put shortly: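 KD values are derived by least-squares fitting of single-cycle kinetic sensorgrams. Peptide series (5–100 nM) flows over recombinant hTfR dimer immobilized on a Ni-NTA chip by EDC/NHS coupling, in pH 8.0 HEPES buffer containing 0.1% BSA and 1.0% DMSO.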
On the technique in general: SPR reads the build-up and loss of mass on a sensor chip optically.
`CC[C@H](C)[C@@H]1NC(=O)[C@H](Cc2ccc(OCC(=O)O)cc2)NC(=O)[C@H](Cc2ccc(N)nc2)NC(=O)[C@H](CC(N)=O)NC(=O)[C@H](Cc2c[nH]c3ccccc23)NC(=O)[C@H](C(C)C)NC(=O)[C@H](Cc2cccc(Cl)c2)N(C)C(=O)[C@H](C(C)C)NC(=O)[C@H](C)NC(=O)CSC[C@@H](C(=O)NCCOCCOCCOCCOCCC(N)=O)NC(=O)[C@H](Cc2ccc(O)cc2)N(C)C(=O)[C@H](Cc2ccncc2)NC(=O)[C@H](CCC(=O)NCCOCCOCCOCCOCCOCCOCCOCCOC)NC(=O)[C@H](CCCNC(=N)N)NC(=O)[C@H]([C@@H](C)CC)NC1=O` [compound 100] ({CH2CO}-AV[NMePhe(3-Cl)]VWN[3Pal(6-NH2)]Y(Carboxymethyl)IIRE(NH(CH2CH2O)8Me)[4Pal][NMeY]C[PEG4]-NH2; thioether N-15): the Kd was 1 to 100 nM.

As to `CC[C@H](C)[C@@H]1NC(=O)[C@H](Cc2ccc(OCC(=O)O)cc2)NC(=O)[C@H](Cc2ccc(O)cc2)NC(=O)[C@H](CC(N)=O)NC(=O)[C@H](Cc2cn(CC(=O)O)c3ccccc23)NC(=O)[C@H](C(C)C)NC(=O)[C@H](Cc2cccc(Cl)c2)N(C)C(=O)[C@H](C(C)C)NC(=O)[C@H](C)NC(=O)CSC[C@@H](C(=O)NCCOCCOCCOCCOCCC(N)=O)NC(=O)[C@H](Cc2ccc(O)cc2)N(C)C(=O)[C@H](Cc2ccccc2)NC(=O)[C@H](CCCNC(=N)N)NC(=O)[C@H](CCC(=O)NCCOCCOCCOCCOCCOCCOCCOCCOC)NC(=O)[C@H]([C@@H](C)CC)NC1=O` [compound 101], the dissociation constant Kd is 1 to 100 nM.

Consider `CC[C@H](C)[C@@H]1NC(=O)[C@H](Cc2ccc(OCC(=O)O)cc2)NC(=O)[C@H](Cc2ccc(O)cc2)NC(=O)[C@H](CC(N)=O)NC(=O)[C@H](Cc2cn(CC(=O)O)c3ccccc23)NC(=O)[C@H](C(C)C)NC(=O)[C@H](Cc2cccc(Cl)c2)N(C)C(=O)[C@H](C(C)C)NC(=O)[C@H](C)NC(=O)CSC[C@@H](C(=O)NCCOCCOCCOCCOCCC(N)=O)NC(=O)[C@H](Cc2ccc(O)cc2)N(C)C(=O)[C@H](Cc2ccccc2)NC(=O)[C@H](CCC(=O)NCCOCCOCCOCCOCCOCCOCCOCCOC)NC(=O)[C@H](CCCNC(=N)N)NC(=O)[C@H]([C@@H](C)CC)NC1=O` [compound 102], for which the Kd is 1 to 100 nM.

Take `CC[C@H](C)[C@@H]1NC(=O)[C@H](Cc2ccc(OCC(=O)O)cc2)NC(=O)[C@H](Cc2ccc(O)cc2)NC(=O)[C@H](CC(N)=O)NC(=O)[C@H](Cc2cn(CC(=O)O)c3ccccc23)NC(=O)[C@H](C(C)C)NC(=O)[C@H](Cc2cccc(Cl)c2)N(C)C(=O)[C@H](C(C)C)NC(=O)[C@H](C)NC(=O)CSC[C@@H](C(=O)NCCOCCOCCOCCOCCC(N)=O)NC(=O)[C@H](Cc2ccc(O)cc2)N(C)C(=O)[C@H](Cc2cccc(C(=O)O)c2)NC(=O)[C@H](CCCNC(=N)N)NC(=O)[C@H](CCC(=O)NCCOCCOCCOCCOCCOCCOCCOCCOC)NC(=O)[C@H]([C@@H](C)CC)NC1=O` [compound 103]: the Kd lay within 1 to 100 nM.

Take `CC[C@H](C)[C@@H]1NC(=O)[C@H](Cc2ccc(OCC(=O)O)cc2)NC(=O)[C@H](Cc2ccc(O)cc2)NC(=O)[C@H](CC(N)=O)NC(=O)[C@H](Cc2cn(CC(=O)O)c3ccccc23)NC(=O)[C@H](C(C)C)NC(=O)[C@H](Cc2cccc(Cl)c2)N(C)C(=O)[C@H](C(C)C)NC(=O)[C@H](C)NC(=O)CSC[C@@H](C(=O)NCCOCCOCCOCCOCCC(N)=O)NC(=O)[C@H](Cc2ccc(O)cc2)N(C)C(=O)[C@H](Cc2ccccc2)NC(=O)[C@H](CCCNC(=N)N)NC(=O)[C@H](CCC(N)=O)NC(=O)[C@H]([C@@H](C)CC)NC1=O` [compound 104]: the Kd fell in the range of 1 to 100 nM.

For the compound `CC[C@H](C)[C@@H]1NC(=O)[C@H](Cc2ccc(OCC(=O)O)cc2)NC(=O)[C@H](Cc2ccc(O)cc2)NC(=O)[C@H](CC(N)=O)NC(=O)[C@H](Cc2cn(CC(=O)O)c3ccccc23)NC(=O)[C@H](C(C)C)NC(=O)[C@H](Cc2cccc(Cl)c2)N(C)C(=O)[C@H](C(C)C)NC(=O)[C@H](C)NC(=O)CSC[C@@H](C(=O)NCCOCCOCCOCCOCCC(N)=O)NC(=O)[C@H](Cc2ccc(O)cc2)N(C)C(=O)[C@H](Cc2ccccc2)NC(=O)[C@H](CCC(N)=O)NC(=O)[C@H](CCCNC(=N)N)NC(=O)[C@H]([C@@H](C)CC)NC1=O` [compound 105], the Kd was in the range of 1 to 100 nM.

Turning to `CC[C@H](C)[C@@H]1NC(=O)[C@H](Cc2ccc(O)cc2)NC(=O)[C@H](Cc2ccc(O)cc2)NC(=O)[C@H](CC(N)=O)NC(=O)[C@H](Cc2c[nH]c3ccccc23)NC(=O)[C@H](C(C)C)NC(=O)[C@H](Cc2ccccc2)N(C)C(=O)[C@H](C(C)C)NC(=O)[C@H](C)NC(=O)CSC[C@@H](C(=O)NCC(=O)N[C@H](CCC(=O)O)C(=O)N[C@H](CCC(=O)O)C(=O)N[C@H](CCC(=O)O)C(=O)N[C@H](CCC(=O)O)C(=O)N[C@H](CCC(=O)O)C(=O)N[C@@H](CSCC(=O)NC)C(N)=O)NC(=O)[C@H](Cc2ccc(O)cc2)N(C)C(=O)[C@H](Cc2ccc(O)cc2)NC(=O)[C@H](CCCNC(=N)N)NC(=O)[C@H](CCCNC(=N)N)NC(=O)[C@H]([C@@H](C)CC)NC1=O` [compound 107], the Kd was in the range of 1 to 100 nM.

Take `CC[C@H](C)[C@@H]1NC(=O)[C@H](Cc2ccc(OC)cc2)NC(=O)[C@H](Cc2ccc(O)cc2)NC(=O)[C@H](CC(N)=O)NC(=O)[C@H](Cc2cn(CC(=O)O)c3ccccc23)NC(=O)[C@H](C(C)C)NC(=O)[C@H](Cc2cccc(Cl)c2)N(C)C(=O)[C@H](C(C)C)NC(=O)[C@H](C)NC(=O)CSC[C@@H](C(=O)NCCOCCOCCOCCOCCC(N)=O)NC(=O)[C@H](Cc2ccc(O)cc2)N(C)C(=O)[C@H](Cc2ccccc2)NC(=O)[C@H](CCCNC(=N)N)NC(=O)[C@H](CCCNC(=N)N)NC(=O)[C@H]([C@@H](C)CC)NC1=O` [compound 108]: the Kd is less than 1 nM.

As to `CC[C@H](C)[C@@H]1NC(=O)[C@H](Cc2ccc(OCC(=O)O)cc2)NC(=O)[C@H](Cc2ccc(O)cc2)NC(=O)[C@H](CC(N)=O)NC(=O)[C@H](Cc2c[nH]c3ccccc23)NC(=O)[C@H](C(C)C)NC(=O)[C@H](Cc2cccc(Cl)c2)N(C)C(=O)[C@H](C(C)C)NC(=O)[C@H](C)NC(=O)CSC[C@@H](C(=O)NCCOCCOCCOCCOCCC(N)=O)NC(=O)[C@H](Cc2ccc(O)cc2)N(C)C(=O)[C@H](Cc2ccccc2)NC(=O)[C@H](CCCNC(=N)N)NC(=O)[C@H](CCCNC(=N)N)NC(=O)[C@H]([C@@H](C)CC)NC1=O` [compound 109], the Kd is less than 1 nM.

Take `CC[C@H](C)[C@@H]1NC(=O)[C@H](Cc2ccc(OCC(=O)O)cc2)NC(=O)[C@H](Cc2ccc(O)cc2)NC(=O)[C@H](CC(N)=O)NC(=O)[C@H](Cc2cn(CC(=O)O)c3ccccc23)NC(=O)[C@H](C(C)C)NC(=O)[C@H](Cc2cccc(Cl)c2)N(C)C(=O)[C@H](C(C)C)NC(=O)[C@H](C)NC(=O)CSC[C@@H](C(=O)NCCOCCOCCOCCOCCC(N)=O)NC(=O)[C@H](Cc2ccc(O)cc2)N(C)C(=O)[C@H](Cc2ccccc2)NC(=O)[C@H](CCCNC(=N)N)NC(=O)[C@H](CCC(=O)NCCOCCOCCOCCOC)NC(=O)[C@H]([C@@H](C)CC)NC1=O` [compound 110]: the Kd was in the range of 1 to 100 nM.

`CC[C@H](C)[C@@H]1NC(=O)[C@H](Cc2ccc(OCC(=O)O)cc2)NC(=O)[C@H](Cc2ccc(O)cc2)NC(=O)[C@H](CC(N)=O)NC(=O)[C@H](Cc2cn(CC(=O)O)c3ccccc23)NC(=O)[C@H](C(C)C)NC(=O)[C@H](Cc2cccc(Cl)c2)N(C)C(=O)[C@H](C(C)C)NC(=O)[C@H](C)NC(=O)CSC[C@@H](C(=O)NCCOCCOCCOCCOCCC(N)=O)NC(=O)[C@H](Cc2ccc(O)cc2)N(C)C(=O)[C@H](Cc2ccccc2)NC(=O)[C@H](CCCNC(=N)N)NC(=O)[C@H](CCC(=O)NC(COC)COC)NC(=O)[C@H]([C@@H](C)CC)NC1=O` [compound 111]: the Kd is 1 to 100 nM.

One may read the Kd as a measure of binding affinity in units of concentration.

Values taken from patent US20260116920A1, “HUMAN TRANSFERRIN RECEPTOR BINDING PEPTIDE” (PEPTIDREAM INC., priority 2021, published 2026).
